# Data reported in publication PMC7115494 (European Journal of Medicinal Chemistry, 2012).
# Tests used:
# [1] = tested on: HEL cells; experiment: Cytotoxicity in HEL cells: cell morphology; assay type: cell-based, human; settings: microscopically detectable alteration of cell morphology
# [2] = tested on: VZV TK- strain YS/R; assay type: cell-based, varicella-zoster virus; settings: HEL fibroblasts
# [3] = tested on: HCMV; experiment: Antiviral activity against HCMV, strains summarised in text; assay type: cell-based, human cytomegalovirus; settings: for EC50: Human betaherpesvirus 5, read-out: EC50 HCMV, range over strains
# [4] = tested on: Feline herpesvirus; experiment: Antiviral activity against feline herpesvirus in CRFK cells; assay type: cell-based
# [5] = tested on: VZV; experiment: Antiviral activity against VZV, strains summarised in text; assay type: cell-based, varicella-zoster virus; settings: for EC50: Human alphaherpesvirus 3, read-out: EC50 VZV, range over strains
# [6] = tested on: Vaccinia virus Lederle strain; experiment: microbe, parasite or virus in culture; assay type: cell-based
# [7] = tested on: HSV; experiment: Antiviral activity against HSV, strains summarised in text; assay type: cell-based, herpes simplex virus; settings: for EC50: read-out: EC50 HSV, range over strains
# [8] = tested on: herpesviruses and poxviruses; settings: EC50 in the μM range; cited from earlier work
# [9] = tested on: VZV TK+ strain Oka; experiment: microbe, parasite or virus in culture; assay type: cell-based, varicella-zoster virus; settings: Human alphaherpesvirus 3, Fibroblast, read-out: EC50 VZV TK+ strain Oka
# [10] = tested on: herpesviruses and poxviruses; settings: for Activity against herpesviruses and poxviruses: in vitro
# [11] = tested on: VZV TK+ strain YS; assay type: cell-based, varicella-zoster virus; settings: HEL fibroblasts
compound,measurement,setting,value
"Nc1ccn(C[C@@H](CO)OCP(=O)(O)O)c(=O)n1.O.O [Cidofovir, reference compound]","Cytotoxicity in HEL cells, cell morphology, MCC (minimum cytotoxic concentration)",[1],>317 μM
"CCCCCCCCCCCCCCCCOCCCOP(=O)(CO[C@H](CO)Cn1cnc2c(=O)[nH]c(N)nc21)OCCCOCCCCCCCCCCCCCCCC [Compound 14, Bis 3-(hexadecyloxypropyl) ester of 9-(S)-[3-hydroxy-2-(phosphonomethoxy)propyl]guanine]",Selectivity index (ratio CC50 to EC50) VZV YS/R,[2],>57
same,"Fold difference of EC50 versus parent compound (S)-HPMPG, HCMV",[3]; printed as lower than parent,7 fold
same,"Fold difference of EC50 versus parent compound (S)-HPMPG, feline herpesvirus",[4]; printed as lower than parent,157 fold
same,"Fold difference of EC50 versus parent compound (S)-HPMPG, VZV",[5]; printed as lower than parent,7 fold
same,"Fold difference of EC50 versus parent compound (S)-HPMPG, VACV",[6],41 fold
same,"Cytotoxicity in HEL cells, cell morphology, MCC (minimum cytotoxic concentration)",[1],≥22.6 μM
same,"Fold difference of EC50 versus parent compound (S)-HPMPG, HSV",[7]; printed as lower than parent,15- to 40 fold
"Nc1nc2c(ncn2C[C@@H](CO)OCP(=O)(O)O)c(=O)[nH]1 [(S)-HPMPG, 9-(S)-[3-hydroxy-2-(phosphonomethoxy)propyl]guanine, reference compound]","Cytotoxicity in HEL cells, cell morphology, MCC (minimum cytotoxic concentration)",[1],>100 μM
same,"Reported activity against HSV-1, HSV-2, VZV, CMV and vaccinia virus",[8],active
"Nc1nc(O)c2ncn(COC(CO)CO)c2n1 [Ganciclovir, reference compound]","Cytotoxicity in HEL cells, cell morphology, MCC (minimum cytotoxic concentration)",[1],>394 μM
"O=c1[nH]c(=O)n([C@H]2C[C@H](O)[C@@H](CO)O2)cc1/C=C/Br [Brivudin, reference compound]",EC50,"[6]; Orthopoxvirus vaccinia, Fibroblast, read-out: EC50 Vaccinia virus Lederle",15000 ± 17000 nM
same,"Cytotoxicity in HEL cells, cell morphology, MCC (minimum cytotoxic concentration)",[1],>300 μM
same,EC50,[9],10 ± 10 nM
"CCCCCCCCCCCCCCCCOCCCOP1(=O)CO[C@@H](Cn2cnc3c(=O)[nH]cnc32)CO1 (stereo partly drawn) [Compound 17, 3-(Hexadecyloxypropyl) ester of 9-{[(5S)-2-hydroxy-2-oxido-1,4,2-dioxaphosphinan-5-yl]methyl}hypoxanthine]",Activity against herpesviruses and poxviruses,[10],totally inactive
same,"Cytotoxicity in HEL cells, cell morphology, MCC (minimum cytotoxic concentration)",[1],≥7 μM
"CCCCCCCCCCCCCCCCOCCCOP(=O)(O)CO[C@H](CO)Cn1cnc2c(=O)[nH]cnc21 [Compound 15, 3-(Hexadecyloxypropyl) ester of 9-(S)-[3-hydroxy-2-(phosphonomethoxy)propyl]hypoxanthine]",Activity against herpesviruses and poxviruses,[10],totally inactive
same,"Cytotoxicity in HEL cells, cell morphology, MCC (minimum cytotoxic concentration)",[1],≥34 μM
"Nc1nc2c(ncn2COCCO)c(=O)[nH]1 [Acyclovir, reference compound]","Cytotoxicity in HEL cells, cell morphology, MCC (minimum cytotoxic concentration)",[1],>444 μM
"Nc1nc2c(ncn2C[C@H]2COP(=O)(O)CO2)c(=O)[nH]1 [(S)-cHPMPG, reference compound]","Cytotoxicity in HEL cells, cell morphology, MCC (minimum cytotoxic concentration)",[1],>100 μM
"CCCCCCCCCCCCCCCCOCCCOP1(=O)CO[C@@H](Cn2cnc3c(=O)[nH]c(N)nc32)CO1 (stereo partly drawn) [Compound 18, 3-(Hexadecyloxypropyl) ester of 9-{[(5S)-2-hydroxy-2-oxido-1,4,2-dioxaphosphinan-5-yl]methyl}guanine]",Selectivity index (ratio CC50 to EC50) VZV YS,[11],"19,000"
same,EC50,[3],2 to 7 nM
same,"Selectivity index HCMV, range over strains",[3]; ratio CC50 to EC50,3800–9500
same,EC50,[5],1 to 2.5 nM
same,"Selectivity index VZV, range over strains",[5]; ratio CC50 to EC50,"2700–19,000"
same,"Cytotoxicity in HEL cells, cell morphology, MCC (minimum cytotoxic concentration)",[1],≥171.3 μM
same,"Selectivity index HSV, range over strains",[7]; ratio CC50 to EC50,211–559
same,EC50,[7],7 to 90 nM
"CCCCCCCCCCCCCCCCOCCCOP(=O)(CCOCCn1cnc2c(=O)[nH]cnc21)OCCCOCCCCCCCCCCCCCCCC [Compound 3, Bis 3-(hexadecyloxypropyl) ester of 9-[2-(phosphonomethoxy)ethyl]hypoxanthine]",Activity against herpesviruses and poxviruses,[10],inactive
same,"Cytotoxicity in HEL cells, cell morphology, MCC (minimum cytotoxic concentration)",[1],≥117 μM
"CCCCCCCCCCCCCCCCOCCCOP(=O)(CO[C@H](CO)Cn1cnc2c(=O)[nH]cnc21)OCCCOCCCCCCCCCCCCCCCC [Compound 13, Bis 3-(hexadecyloxypropyl) ester of 9-(S)-[3-hydroxy-2-(phosphonomethoxy)propyl]hypoxanthine]",Activity against herpesviruses and poxviruses,[10],totally inactive
same,"Cytotoxicity in HEL cells, cell morphology, MCC (minimum cytotoxic concentration)",[1],≥23 μM
"CCCCCCCCCCCCCCCCOCCCOP(=O)(O)CO[C@H](CO)Cn1cnc2c(=O)[nH]c(N)nc21 [Compound 16, 3-(Hexadecyloxypropyl) ester of 9-(S)-[3-hydroxy-2-(phosphonomethoxy)propyl]guanine]",EC50,[3],2 to 7 nM
same,Activity against feline herpesvirus,[4]; CRFK cells,inactive
same,SIs fold lower compared to compound 18,[10]; across viruses,2- to 66 fold
same,EC50,[5],1 to 2.5 nM
same,"Cytotoxicity in HEL cells, cell morphology, MCC (minimum cytotoxic concentration)",[1],≥1.3 μM
same,EC50,[7],7 to 90 nM
